Source: patent publication US11279733B2, “Peptide antibiotics” (priority 2017, dated 2022)
Values after ≈ are worked out from the molar mass of the structure shown. Positions of bridges follow the written chain, without caps; N, C: chain ends. Non-standard residues stand in square brackets, D forms with d. Residues, ends and D or L forms follow the SMILES beside them. *: point of attachment. Decanoyl(3R-OH) = CCCCCCC[C@@H](O)CC(=O)*; dDab = NCC[C@@H](N)C(=O)O; Orn = NCCC[C@H](N)C(=O)O; Dab = NCC[C@H](N)C(=O)O; Dap = NC[C@H](N)C(=O)O

Experiments:
[1] = In vitro nephrotoxicity, LDH release from primary human kidney cells; type: cell-based; conditions: pH 7.4
From the text: (§1) hPT cells were derived from whole human kidneys procured by the International Institute for the Advancement of Medicine (Edison, N.J., USA). All tissue was scored by a pathologist as normal (i.e., derived from non-cancerous, non-diseased tissue). Cell isolation procedures were based on those originally described by Todd et al. (1996) and modified (Cummings and Lash, 2000; Cummings et al., 2000) with use of sterile conditions (i.e., all instruments and glassware were autoclaved and all buffers were filtered through a 0.2-μm pore-size filter). Renal cortex and outer stripe were cut into slices, washed with sterile PBS, minced, and the pieces were placed in a trypsinization flask filled with 300 ml of sterile, filtered Hanks' buffer, containing 25 mM NaHCO3, 25 mM HEPES, pH 7.4, 0.5 mM EGTA, 0.2% (w/v) bovine serum albumin, 50 μg/ml gentamicin, 1.3 mg/mL collagenase, and 0.59 mg/ml CaCl2), which was filtered prior to use. Whole kidneys were perfused with Wisconsin medium and kept on ice until they arrived at the laboratory, which was usually within 24 h of removal from the donor.
(§2) All buffers were continuously bubbled with 95% O2/5% CO2 and were maintained at 37° C. Minced cortical pieces from whole kidneys were subjected to collagenase digestion for 60 min, after which the supernatant was filtered through a 70-μm mesh filter to remove tissue fragments, centrifuged at 150×g for 7 min, and the pellet resuspended in Dulbecco's Modified Eagle's Medium: Ham's F12 Medium (DMEM/F12; 1/1). Approximately 5 to 7×10^6 cells were obtained per 1 g of human kidney cortical tissue.
(§3) hPT cells were resuspended in 2 mL of DMEM/F12 and diluted to 500 mL with cell culture medium, which was serum-free and hormonally-defined. Composition of this supplemented medium was based on earlier work establishing optimal conditions for primary culture of rat PT cells (Lash et al., 1995). Basal medium was a 1:1 mixture of DMEM/F12. […] Cells were seeded in a volume of 0.5 ml at a density of 50-100 μg protein per cm^2 (0.5-1.0×10^6 cells/ml) on 24-well plates. Cultures were grown at 37° C. in a humidified incubator under an atmosphere of 95% air/5% CO2 at pH 7.4. Cultures were grown to approximately 80%-90% confluence (generally 5-6 days) prior to experiments. Cells were harvested by either scraping the flasks with a Teflon scraper or by brief incubation with Cellstripper (Cellgro, Herndon, Va., USA) (in Ca^2+- and Mg^2+-free Hanks' buffer).

[2] = In vitro nephrotoxicity, GGT release from primary human kidney cells; type: cell-based; conditions: pH 7.4
From the text: as §1, §2, §3
Release of gamm-glutanyltransferase was assessed according to Orlowski, M., Meister, A. 1963. γ-Glutamyl-p-nitroanilide: A new convenient substrate for determination and study of L- and D-γ-glutamyltranspeptidase activities (Biochim. Biophys. Acta 73: 679-681.)
A 2.5 mM substrate Solution was prepared from 67 mg γ-glutamyl-p-nitroanilide+264 mg glycylglycine in 100 mL of 0.05 M Tris, pH 8.2 (50 mM Tris, pH 8.2: 605 mg Tris/HCl per 100 mL).
For the assay in 96-well plates, 6-μL of sample and 0.3 mL substrate solution were added to each well. The absorbance was measured at 410 nm for the appearance of product, p-nitroanilide (molar extinction=8800 M^−1 cm^−1).

Neisseria gonorrhoeae = experiment: MIC determination, Neisseria gonorrhoeae; type: cell-based; conditions: strain FA19 ATCC BAA-1838
Procedure: Bacteria were either obtained from American Type Culture Collection (ATCC; Manassas, Va., USA) or independent academic clinical isolate collections, as listed in Table 18 below. Bacteria were cultured in Nutrient broth (NB; Bacto Laboratories, catalogue No. 234000) or Mueller Hinton broth (MHB; Bacto Laboratories, catalogue No. 211443) at 37° C. overnight with shaking (˜180 RPM). A sample of each culture was then diluted 50-fold in fresh MHB and incubated at 37° C. for 2-3 h with shaking (˜180 RPM). Compound stock solutions were prepared as 0.64 mg/mL or 2.56 mg/mL in water. The compounds, at twice the final desired concentration, were serially diluted 2-fold across the wells of 96-well plates (Polystyrene, Corning, catalogue No. 3370). Mid-log phase bacterial cultures (after 2-3 h incubation) were diluted to a final concentration of 1×10^6 colony forming units (CFU)/mL, and 50 μL was added to each well giving a final cell density of 5×10^5 and a compound concentration range of 32 μg/mL to 0.015 μg/mL (128-0.06 μg/mL against P. aeruginosa PA9704).

[3] = test system: K. pneumoniae ATCC BAA-2146, NDM-1 pos; conditions: ATCC BAA-2146
Summary of the method: (§4)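 Mid-log cultures grown in Mueller Hinton broth at 37° C were tested by 2-fold broth microdilution at 5×10^5 CFU/mL final. Compounds were dissolved in water and tested over a final range of 32 to 0.015 μg/mL.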

[4] = test system: S. aureus ATCC 25923, MSSA; conditions: ATCC 25923
Summary of the method: as §4

[5] = test system: K. pneumoniae GN_106, PmxR; conditions: GN 106, PmxR
Summary of the method: as §4

[6] = test system: P. aeruginosa GN_105, PmxR; conditions: GN 105, PmxR
Summary of the method: as §4

A. baumannii ATCC 19606 = conditions: ATCC 19606
Summary of the method: as §4

K. pneumoniae ATCC 13883 = conditions: ATCC 13883
Summary of the method: as §4

P. aeruginosa ATCC 27853 = conditions: ATCC 27853
Summary of the method: as §4

A. baumannii GN_093 PmxR = conditions: GN 093 PmxR
Summary of the method: as §4

[7] = test system: K. pneumoniae ATCC 700603, MDR; conditions: ATCC 700603
Summary of the method: as §4

[8] = test system: K. pneumoniae GN_102 PmxR; conditions: GN 102 PmxR
Summary of the method: as §4

[9] = test system: P. aeruginosa GN_043, PmxR; conditions: polymyxin-resistant
Summary of the method: as §4

E. coli ATCC 25922 = conditions: ATCC 25922
Summary of the method: as §4

in vitro = conditions: human
Summary of the method: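 Compound exposure lasted 24 h, following 24 h attachment of 4000 cells/well at 37° C under 5% CO2.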

SMILES: CCCCCCC[C@@H](O)CC(=O)N[C@H](CCN)C(=O)N[C@H]1CCNC(=O)[C@H](CC(C)C)NC(=O)[C@H](CCCN)NC(=O)[C@H](CCN)NC(=O)[C@H](CC(C)C)NC(=O)[C@@H](Cc2ccccc2)NC(=O)[C@H](CCN)NC1=O [compound 988, 3(R)OH-nC9CO-D-Dab-cyc[L-Dab-L-Dab-D-Phe-L-Leu-L-Dab-L-Orn-L-Leu]] ({Decanoyl(3R-OH)}-[dDab][Dab][Dab][dF]L[Dab][Orn]L; lactam 2-C)
- CC50 [1]: 118 µg/mL (≈ 111 µM)
- CC50 [2]: > 128 µg/mL
- MIC N. gonorrhoeae FA19 ATCC BAA-1838 (Neisseria gonorrhoeae): 0.78 µg/mL (≈ 0.737 µM)
- MIC K. pneumoniae ATCC BAA-2146, NDM-1 pos [3]: 2 µg/mL (≈ 1.89 µM)
- MIC S. aureus ATCC 25923, MSSA [4]: 16 µg/mL (≈ 15.1 µM)
- MIC K. pneumoniae GN_106, PmxR [5]: 2 µg/mL (≈ 1.89 µM)
- MIC P. aeruginosa GN_105, PmxR [6]: 2 µg/mL (≈ 1.89 µM)
- MIC A. baumannii ATCC 19606 (A. baumannii ATCC 19606): 4 µg/mL (≈ 3.78 µM)
- MIC K. pneumoniae ATCC 13883 (K. pneumoniae ATCC 13883): 2 µg/mL (≈ 1.89 µM)
- MIC P. aeruginosa ATCC 27853 (P. aeruginosa ATCC 27853): 2 µg/mL (≈ 1.89 µM)
- MIC A. baumannii GN_093 PmxR (A. baumannii GN_093 PmxR): 8 µg/mL (≈ 7.56 µM)
- MIC K. pneumoniae ATCC 700603, MDR [7]: 2 µg/mL (≈ 1.89 µM)
- MIC K. pneumoniae GN_102 PmxR [8]: 2 µg/mL (≈ 1.89 µM)
- MIC P. aeruginosa GN_043, PmxR [9]: 2 µg/mL (≈ 1.89 µM)
- MIC E. coli ATCC 25922 (E. coli ATCC 25922): 2 µg/mL (≈ 1.89 µM)

SMILES: CCCCCCC[C@@H](O)CC(=O)N[C@H](CCN)C(=O)N[C@H]1CCNC(=O)[C@H](CC(C)C)NC(=O)[C@H](CCN)NC(=O)[C@H](CN)NC(=O)[C@H](CC(C)C)NC(=O)[C@@H](Cc2ccccc2)NC(=O)[C@H](CCN)NC1=O [compound 990, 3(R)OH-nC9CO-D-Dab-cyc[L-Dab-L-Dab-D-Phe-L-Leu-L-Dap-L-Dab-L-Leu]] ({Decanoyl(3R-OH)}-[dDab][Dab][Dab][dF]L[Dap][Dab]L; lactam 2-C)
- CC50 [1]: 87 µg/mL (≈ 84.4 µM)
- CC50 [2]: > 128 µg/mL
- MIC, K. pneumoniae ATCC BAA-2146, NDM-1 pos [3]: 4 µg/mL (≈ 3.88 µM)
- MIC, S. Aureus ATCC 25923, MSSA [4]: 32 µg/mL (≈ 31.1 µM)
- MIC, K. pneumoniae Cl 138-16347-20362, PmxR [5]: 4 µg/mL (≈ 3.88 µM)
- MIC, P. aeruginosa PA9704, PmxR [6]: 4 µg/mL (≈ 3.88 µM)
- MIC, A. baumannii ATCC 19606 (A. baumannii ATCC 19606): 8 µg/mL (≈ 7.76 µM)
- MIC, K. pneumoniae ATCC 13883 (K. pneumoniae ATCC 13883): 4 µg/mL (≈ 3.88 µM)
- MIC, P. aeruginosa ATCC 27853 (P. aeruginosa ATCC 27853): 2 µg/mL (≈ 1.94 µM)
- MIC, A. baumannii Cl Ptyela 10073 4512:2, PmxR (A. baumannii GN_093 PmxR): 16 µg/mL (≈ 15.5 µM)
- MIC, K. pneumoniae ATCC 700603, MDR [7]: 4 µg/mL (≈ 3.88 µM)
- MIC, K. pneumoniae Cl Koprana 10065 0661:1, PmxR [8]: 4 µg/mL (≈ 3.88 µM)
- MIC, P. aeruginosa FADDI-PA070, PmxR ([9]; Table 5): 2 µg/mL (≈ 1.94 µM)
- MIC, E. coli ATCC 25922 (E. coli ATCC 25922): 4 µg/mL (≈ 3.88 µM)
- CC50 at 24 h (in vitro): > 300 µM
